pEC50: −log10 of the molar value.
System: Human Pan T Cell (IL-2 release)
Assay: IL2 released by human pan T cell upon anti-CD3/anti-CD28 stimulation (ELISA)
Type: cell-based
Details: human pan T cells; for maximal fold induction / pEC50 / EC (2-fold response): Homo sapiens, T-cell; for maximal fold induction / EC (2-fold response): 48 h; for maximal fold induction: response of IL-2 over DMSO control, anti-CD3/anti-CD28, 48 hours, ELISA, read-out: IL-2 Max Fold Response; for pEC50: IL-2 response, calculated with GraphPad Prism; for EC (2-fold response) / EC2x (nM): concentration of compound that gives 200% IL-2 response (2 folds) over DMSO control
Outline: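 Primary human pan-T cells, negatively isolated from PBMC, plated at 100,000 cells/well and stimulated with immobilized anti-CD3 plus soluble anti-CD28 in presence of test compound at varying concentrations. After 2 days, secreted IL-2 in supernatant quantified by ELISA.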

pEC50 | SMILES | maximal fold induction | EC (2-fold response) | EC2x (nM)
 | CN1CCc2ccc(Nc3ncc(Cl)c(N4CCc5ccccc54)n3)cc2C1 [Example 14, N-(5-Chloro-4-(indolin-1-yl)pyrimidin-2-yl)-2-methyl-1,2,3,4-tetrahydroisoquinolin-7-amine] | < 2 |  | 
 | CONC(=O)C1CN(c2nc(Nc3cc4c(cc3OC)CCN(C)C4)ncc2Cl)c2ccccc21 (centres unmarked) [Example 103, 1-(5-Chloro-2-((6-methoxy-2-methyl-1,2,3,4-tetrahydroisoquinolin-7-yl)amino)pyrimidin-4-yl)-N-methoxyindoline-3-carboxamide] | < 2 |  | 
6.00 to 6.30 | COc1cc2c(cc1Nc1ncc(Cl)c(N3CC4(CC4)c4ccccc43)n1)CN(C)CC2 [Example 84, N-(5-chloro-4-(spiro[cyclopropane-1,3′-indolin]-1′-yl)pyrimidin-2-yl)-6-methoxy-2-methyl-1,2,3,4-tetrahydroisoquinolin-7-amine] | < 2 |  | 
6.30 to 7.00 | COc1cc2c(cc1Nc1ncc(Cl)c(N3CCc4ccc(Cl)cc43)n1)CN(C)CC2 [Example 18, N-(5-chloro-4-(6-chloroindolin-1-yl)pyrimidin-2-yl)-6-methoxy-2-methyl-1,2,3,4-tetrahydroisoquinolin-7-amine] | < 2 |  | 
 | COc1cc2c(cc1Nc1ncc(Cl)c(-n3ccc4ccccc43)n1)CN(C)CC2 [Example 2, N-(5-chloro-4-(1H-indol-1-yl)pyrimidin-2-yl)-6-methoxy-2-methyl-1,2,3,4-tetrahydroisoquinolin-7-amine] | < 2 |  | 
≥ 7.00 | COc1cc2c(cc1Nc1ncc(Cl)c(N3CC(C)(C(=O)O)c4ccc(F)cc43)n1)CN(C)CC2 (centres unmarked) [Example 126] | > 2 | ≤ 0.1 µM | 
≥ 7.00 | COc1cc2c(cc1Nc1ncc(Cl)c(N3CC(C)(CC(=O)O)c4ccccc43)n1)CN(C)C2 (centres unmarked) [Example 159, 2-(1-(5-Chloro-2-((6-methoxy-2-methylisoindolin-5-yl)amino)pyrimidin-4-yl)-3-methylindolin-3-yl)acetic acid] | > 2 | ≤ 0.1 µM | 
 | COc1cc2c(cc1Nc1ncc(Cl)c(-n3cc(C(=O)N(C)C)c4ccccc43)n1)CN(C)CC2 [Example 8] | < 2 |  | 
< 6.00 | COc1cc2c(cc1Nc1ncc(Cl)c(N3CC(C(=O)O)c4c(OC)cccc43)n1)CN(C)CC2 (centres unmarked) [Example 108, 1-(5-Chloro-2-((6-methoxy-2-methyl-1,2,3,4-tetrahydroisoquinolin-7-yl)amino)pyrimidin-4-yl)-4-methoxyindoline-3-carboxylic acid] | < 2 |  | 
6.30 to 7.00 | COc1cc2c(cc1Nc1ncc(Cl)c(-n3cc(CC(=O)O)c4ccccc43)n1)CN(C)CC2 [Example 129] | > 2 | 0.1 to 0.5 µM | 
< 6.00 | COc1cc2c(cc1Nc1ncc(Cl)c(-n3cc(CC(N)=O)c4ccccc43)n1)CN(C)CC2 [Example 133] | < 2 |  | 
6.30 to 7.00 | COc1cc2c(cc1Nc1ncc(Cl)c(-n3cnc4ccccc43)n1)CN(C)CC2 [Example 9, N-(4-(1H-benzo[d]imidazol-1-yl)-5-chloropyrimidin-2-yl)-6-methoxy-2-methyl-1,2,3,4-tetrahydroisoquinolin-7-amine] | > 2 |  | ++ (“++”, for higher values than “+++” but less than or equal to 1 μM)
< 6.00 | COc1cc2c(cc1Nc1nccc(N3CC(C(=O)O)c4ccccc43)n1)CN(C)CC2 (centres unmarked) [Example 163, 1-(2-((6-Methoxy-2-methyl-1,2,3,4-tetrahydroisoquinolin-7-yl)amino)pyrimidin-4-yl)indoline-3-carboxylic acid] | > 2 |  | + (“+”, for greater than 1 μM)
6.00 to 6.30 | COc1cc2c(cc1Nc1ncc(Cl)c(N3CC(P(C)(C)=O)c4ccccc43)n1)CN(C)CC2 (centres unmarked) [Example 88] | < 2 |  | 

— US12612424B2, “HPK1 inhibitors and uses thereof” (Regor Pharmaceuticals, Inc., priority 2019, dated 2026)
